These are literature values, as cited in patent US20120010144A1, “Peg-albumin composition having at least one protected thiol region as a platform for medications” (priority 2009, published 2012).

For this series the following is noted: soluble in water (hydrophilic) or in lipid (hydrophobic).

As to `Cc1c(C)c2c(c(C)c1O)CC[C@@](C)(CCC[C@H](C)CCC[C@H](C)CCCC(C)C)O2` [A-Tocopherol], the Solubility result is given as “Lipid”.

Regarding `N[C@@H](CCC(=O)N[C@@H](CS)C(=O)NCC(=O)O)C(=O)O` [Glutathione], the Solubility result is “Water”.

With `COc1c(O)c(C)c(C/C=C(\C)CC/C=C(\C)CC/C=C(\C)CC/C=C(\C)CC/C=C(\C)CC/C=C(\C)CC/C=C(\C)CC/C=C(\C)CC/C=C(\C)CCC=C(C)C)c(O)c1OC` [Ubiquinol], the Solubility entry is given as “Lipid”.

Turning to `O=c1[nH]c(=O)c2[nH]c(=O)[nH]c2[nH]1` [Uric Acid], the Solubility result is given as “Water”.

Regarding Carotenes, the Solubility result is “Lipid”.
